The values that follow come from patent publication US12492380B2, “Methods for the production of hepatocytes” (FUJIFILM Cellular Dynamics, Inc., priority 2019, dated 2025).

The structures appear in SMILES notation. Bounds are passed on as bounds.

Data set [1] relates to iPSCs. As to the kind of experiment: CHIR99021 preconditioning/supplementation during iPSC to hepatocyte differentiation. The data set is classed as cell-based, human. The settings on record: supplementation midway through differentiation.
Description: iPS cells were maintained on […] ® in E8 Medium under hypoxic conditions (5% 02), using 0.5 mM EDTA for splitting approximately every 4-5 days. The iPSC cultures were acclimatized to hypoxia for around 10 passages before the onset of hepatocyte differentiation. Starting iPS cell cultures were seeded at 15-20 k/cm^2 on […] ®-coated 6-well plates or T150 flasks. Two days after seeding, media was changed to preconditioning medium (PCM) and fed daily for two-three days. Endoderm induction was performed by placing the cells in media containing activin (DE Day 0 Medium, also referred to as T0 medium). On days 1-2, media was changed to DE Day 1-2 Medium (also referred to as T1-T2 medium) containing activin, along with low concentrations of BMP4, VEGF and FGF2 for the next two days. From day 3-9, media was changed to DE Day 3-9 (also referred to as T3-T6 medium) with the base medium SFD, supplemented with Activin, BMP4 and VEGF. On day 10, a sampling of the culture was performed for staining the percentage of definitive endoderm cells. […] Surface staining was performed to quantify the levels of Tra181, CXCR4, CD117 by flow cytometry. […]
Alternately, the cell individualized cell suspension was placed in media for aggregate formation. […] Intracellular staining to quantify the levels of AAT, ASGPR, Albumin, and matched isotypes was performed via flow cytometry. […]
The target in data set [2] is type I TGF-β receptors. The following applies: direct inhibition, unrelated to Src signaling; cited from earlier work.
For data set [3], the system named is iPSC-derived hepatocytes. Briefly: Stage 3 maturation of thawed end of Stage 2 hepatocytes (morphology, AAT and albumin by flow cytometry). Type of data set: cell-based, human. As to the method:
Thawing Cryopreserved hepatocytes at Stage 2 of differentiation and maturation to Stage 3 hepatocytes post thaw: Cryopreserved hepatocytes at the end of stage 2 were thawed in Stage 3 media. The cells were plated on Collagen I coated plates without spinning in the presence of a rock inhibitor. The media was gently changed at the end of 24 hours post plating. The maturation media contained SB/DAPT or Src kinase inhibitors and the cells were allowed to differentiate to additional 8-10 days with media exchanges every 48 hrs. The end stage cells were analyzed for hepatocyte morphology and the presence of AAT and albumin expression quantified by flow cytometry.
Generation of Liver organoids: Aggregates consisting of hepatocytes and other liver relevant cell types—specifically macrophages, MSC, and endothelial cells—designed to mimic liver organoid culture were established and maintained for 5-10 days. Aggregates were established in hepatocyte Stage 3 media (Table 2) supplemented with 1 μM of H1152, with the non-hepatocyte cells undergoing adaptation to Stage 3 media prior to initiation of co-cultures. For co-culture initiation, end of Stage 1 cells Hepatocytes were recovered from cryopreservation and aggregated at 500,000 cells/mL in Stage 2 media (Table 2) supplemented with 1 μM of rho kinase (rock) inhibitor H1152. […]

Data set [4] deals with T1, ZAP-70 (Homo sapiens, UniProt P43403).
T1 sequence (P43403 1-619): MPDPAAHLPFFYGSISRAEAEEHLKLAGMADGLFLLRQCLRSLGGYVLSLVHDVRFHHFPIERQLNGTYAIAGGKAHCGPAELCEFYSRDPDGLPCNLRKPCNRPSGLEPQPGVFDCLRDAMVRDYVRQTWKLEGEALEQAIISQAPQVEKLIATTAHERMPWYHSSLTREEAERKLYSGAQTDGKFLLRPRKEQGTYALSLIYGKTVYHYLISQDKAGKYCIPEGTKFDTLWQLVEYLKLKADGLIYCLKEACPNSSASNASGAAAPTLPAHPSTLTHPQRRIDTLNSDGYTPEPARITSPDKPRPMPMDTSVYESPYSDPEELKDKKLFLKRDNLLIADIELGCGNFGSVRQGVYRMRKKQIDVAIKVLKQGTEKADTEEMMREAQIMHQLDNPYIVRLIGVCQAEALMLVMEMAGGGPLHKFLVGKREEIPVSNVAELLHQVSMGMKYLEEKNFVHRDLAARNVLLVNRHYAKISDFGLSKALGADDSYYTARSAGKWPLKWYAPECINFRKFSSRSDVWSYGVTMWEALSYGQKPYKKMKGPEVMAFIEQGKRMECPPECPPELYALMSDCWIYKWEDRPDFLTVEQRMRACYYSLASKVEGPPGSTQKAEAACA
The settings on record: cited from earlier work.

With `Cc1c[nH]c(-c2cnc(NCCNc3ccc(C#N)cn3)nc2-c2ccc(Cl)cc2Cl)n1` [CHIR99021], the “expansion of cells during hepatoblast to hepatocyte transition” value in data set [1] is on record as “effective in promoting the expansion of cells”.
`Cc1ccc(-c2nn(C(C)(C)C)c3ncnc(N)c23)cc1` [PP1]: the IC50 was 50 nM in data set [2] and not below 600 nM in data set [4]. The maturation of hepatocytes result in data set [3] (PP1 substituted for SB431542/DAPT in Stage 3 maturation media, post thaw, preliminary data) is “facilitated the maturation of hepatocytes”. Moreover, the “maturation of hepatocytes in co-culture” value in data set [3] (in the presence of MSCs, macrophages and endothelial cells) is “enhances the maturation of Hepatocytes”.
